20 compounds from patent US7410975B2, “Small molecule toll-like receptor (TLR) antagonists” (Coley Pharmaceutical Group, Inc., priority 2003, dated 2008) can be followed below.

SMILES strings stand for the structures.

This assay deals with T1, human TLR7 (hTLR7) (Homo sapiens, UniProt Q9NYK1).
T1 construct: expressed in transfected cells
T1 sequence (Q9NYK1 27-1049): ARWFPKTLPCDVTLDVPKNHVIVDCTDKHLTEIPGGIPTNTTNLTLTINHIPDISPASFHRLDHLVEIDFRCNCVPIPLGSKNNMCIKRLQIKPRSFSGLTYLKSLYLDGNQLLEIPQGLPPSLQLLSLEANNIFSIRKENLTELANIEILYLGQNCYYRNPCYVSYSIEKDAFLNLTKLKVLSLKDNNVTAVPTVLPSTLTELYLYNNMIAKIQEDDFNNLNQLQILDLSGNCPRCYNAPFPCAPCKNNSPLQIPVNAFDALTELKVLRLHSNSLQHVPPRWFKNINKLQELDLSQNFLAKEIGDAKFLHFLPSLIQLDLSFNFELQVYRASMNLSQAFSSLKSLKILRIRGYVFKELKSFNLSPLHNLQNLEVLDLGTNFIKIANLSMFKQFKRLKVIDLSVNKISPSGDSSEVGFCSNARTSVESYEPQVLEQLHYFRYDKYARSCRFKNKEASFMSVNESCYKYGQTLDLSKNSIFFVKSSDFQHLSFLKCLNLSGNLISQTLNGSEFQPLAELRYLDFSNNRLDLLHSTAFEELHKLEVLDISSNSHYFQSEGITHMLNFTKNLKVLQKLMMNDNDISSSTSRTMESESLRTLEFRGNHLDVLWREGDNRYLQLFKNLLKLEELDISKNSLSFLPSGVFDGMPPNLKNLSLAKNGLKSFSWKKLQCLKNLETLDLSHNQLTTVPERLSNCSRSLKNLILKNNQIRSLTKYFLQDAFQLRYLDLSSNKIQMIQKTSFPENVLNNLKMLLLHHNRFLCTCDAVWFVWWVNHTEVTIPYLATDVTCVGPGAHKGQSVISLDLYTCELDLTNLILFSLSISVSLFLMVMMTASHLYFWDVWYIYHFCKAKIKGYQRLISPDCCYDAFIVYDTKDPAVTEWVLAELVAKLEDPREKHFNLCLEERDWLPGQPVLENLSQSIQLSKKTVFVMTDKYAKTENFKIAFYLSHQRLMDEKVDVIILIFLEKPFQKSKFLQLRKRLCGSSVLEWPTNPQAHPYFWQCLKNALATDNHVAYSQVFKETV
In words: Antagonist screen, hTLR7-NFκB-293 cells, NF-κB-luciferase reporter, with EC50 of R848. As to conditions: compound at 0.5, 5, 50 μg/ml; EC50 concentration of R848; 16 h; NF-κB-luciferase. The class given is cell-based. How it is done:
The method is described in greater detail as follows. The cells for each individual cell clone (hTLR3-NFκB-293, hTLR7-NFκB-293, hTLR8-NFκB-293 and hTLR9-NFκB-293) were counted and seeded one day before the stimulation at 1.5×10^4 cells per well in 96-well cell culture plates. To become adherent the cells were incubated after seeding overnight at 37° C. in 5% CO2 humidified air.
The screen for each compound was performed at the same time for all of the receptors TLR3, TLR7, TLR8 and TLR9. Up to fifteen test compounds, each assayed in duplicate at each of three different final concentrations (0.5 μg/ml, 5 μg/ml, and 50 μg/ml), were used for 16 h cell stimulation on a single multiwell culture plate. A 4× final concentration master plate was created to prepare the different test compounds before they were added to the cells.
Controls were added as duplicates individually for each cell clone on the cell culture plate. Positive controls were used as follows (final concentrations): 50 μg/ml poly(I:C) for hTLR3-NFκB-293; 8 μM resiquimod (R848) for hTLR7-NFκB-293; 30 μM R848 for hTLR8-NFκB-293; and 2.5 μM CpG-ODN 2006 for hTLR9-NFκB-293. Media alone was used as negative control. After addition of controls and small molecules, the cell clones were additionally stimulated with the EC50 concentration of the appropriate receptor-specific ligand.
The mean value of wells H2 and H5 (each with cells and EC50 concentration of the appropriate receptor-specific ligand) divided by the mean of wells H3 and H6 (each with cells alone) yielded the baseline response (i.e., fold induction of luciferase activity) to EC50 concentration of the appropriate receptor-specific ligand.
After 16 h stimulation the supernatant was removed and the cells treated with lysis buffer and stored at −80° C. before measuring.
For each screen result a graphical documentation was performed.
The baseline result (measured with addition of the EC50 concentration of the receptor-specific ligand) for each cell culture plate was measured as described above. Antagonistic effects were measured by down regulation compared to the baseline. Antagonists were scored as follows: • 13: compounds for which there was clear down regulation at 0.5 μg/ml, 5 μg/ml, and 50 μg/ml; • 12: compounds for which there was clear down regulation at 5 μg/ml and 50 μg/ml; • 11: compounds for which there was clear down regulation only at 50 μg/ml; • —: compounds for which there was no clear down regulation even at 50 μg/ml. Agonists
Results were expressed as fold induction over baseline luciferase activity measured in the absence of R848. […] Additional screening was performed in like manner using additional small molecules selected from another library or specifically prepared for this purpose. Scoring is reported as above but as applied to TLR7.
On to `CCCC(C(=O)OCCN(CC)CC)(c1ccccc1)c1ccccc1.Cl` [compound 778, Proadifen hydrochloride], for which the “hTLR7 (inhibitory effect, antagonist score)” value is 11 (compounds for which there was clear down regulation only at 50 μg/ml).
Under `CS(=O)(=O)O.OC(CCN1CCCCC1)(c1ccccc1)c1ccccc1` [compound 799, Pridinolmethanesulfonate salt] stands “— (compounds for which there was no clear down regulation even at 50 μg/ml)”.
Under `Cc1cccc(C2(c3cccc(C)c3)OC(=O)c3ccccc32)c1` [compound 1308] stands 12 (compounds for which there was clear down regulation at 5 μg/ml and 50 μg/ml); under `OCc1cc2c(cn1)[nH]c1ccccc12` [compound 878, 3-hydroxymethyl-beta-carboline], “— (compounds for which there was no clear down regulation even at 50 μg/ml)”.
As for `CN1CCC(OC(c2ccccc2)c2ccccc2)CC1.Cl` [compound 707, Diphenylpyralinehydrochloride], the “hTLR7 (inhibitory effect, antagonist score)” value is given as 11 (compounds for which there was clear down regulation only at 50 μg/ml).
Under `CN1Cc2c(N)cccc2C(c2ccccc2)C1.O=C(O)/C=C\C(=O)O` (centres unmarked) [compound 108, Nomifensine maleate] stands “— (compounds for which there was no clear down regulation even at 50 μg/ml)”.
With `NC(=O)c1cc(N)c2c(c1N)C(=O)c1ccccc1C2=O` [compound 1158], the “hTLR7 (inhibitory effect, antagonist score)” value is recorded as “— (compounds for which there was no clear down regulation even at 50 μg/ml)”.
Under `Cl.Clc1ccc(C(OCCN2CCCCC2)c2ccccc2)cc1` (centres unmarked) [compound 793, Cloperastinehydrochloride] stands 11 (compounds for which there was clear down regulation only at 50 μg/ml).
Under `CC(NCCC(c1ccccc1)c1ccccc1)c1ccccc1.Cl` (centres unmarked) [compound 270, Fendiline hydrochloride] stands 11 (compounds for which there was clear down regulation only at 50 μg/ml); under `CN(C)CCCN1c2ccccc2Sc2ccc(Cl)cc21.Cl` [compound 64, Chlorpromazinehydrochloride], 11 (compounds for which there was clear down regulation only at 50 μg/ml).
Turning to `O=C1Nc2ccccc2Oc2ccc([N+](=O)[O-])cc21` [compound 1352], the “hTLR7 (inhibitory effect, antagonist score)” value was 13 (compounds for which there was clear down regulation at 0.5 μg/ml, 5 μg/ml, and 50 μg/ml).
For the compound `CC(=O)c1ccc2c(c1)N(CCCN(C)C)c1ccccc1S2.O=C(O)/C=C\C(=O)O` [compound 576, Acetopromazinemaleate salt], the “hTLR7 (inhibitory effect, antagonist score)” value is listed as “— (compounds for which there was no clear down regulation even at 50 μg/ml)”.
For `COc1ccc2c(c1)N(CC(C)CN(C)C)c1ccccc1S2.O=C(O)/C=C\C(=O)O` (centres unmarked) [compound 797, Methotrimeprazinemaleat salt], the “hTLR7 (inhibitory effect, antagonist score)” value is listed as “— (compounds for which there was no clear down regulation even at 50 μg/ml)”.
For `CNCCCN1c2ccccc2CCc2ccccc21.Cl` [compound 343, Desipraminehydrochloride], the “hTLR7 (inhibitory effect, antagonist score)” value is 12 (compounds for which there was clear down regulation at 5 μg/ml and 50 μg/ml).
Under `Clc1ccccc1C(c1ccccc1)(c1ccccc1)n1ccnc1` [compound 267, Clotrimazole] stands 12 (compounds for which there was clear down regulation at 5 μg/ml and 50 μg/ml); under `CCCCOC(=O)c1cc([N+](=O)[O-])cc2c1-c1cc(CO)c([NH+]([O-])O)cc1C2=C(C#N)C#N` (centres unmarked) [compound 939], 11 (compounds for which there was clear down regulation only at 50 μg/ml).
`CN(C)CC/C=C1/c2ccccc2Sc2ccc(Cl)cc21.Cl` [compound 348, Chlorprothixenehydrochloride]: the “hTLR7 (inhibitory effect, antagonist score)” value is recorded as 11 (compounds for which there was clear down regulation only at 50 μg/ml).
For `COC(=O)C1=CO[C@@H](C)[C@@H]2CN3CCc4c([nH]c5ccccc45)[C@@H]3C[C@H]12` [compound 593, Tetrahydroalstonine], the “hTLR7 (inhibitory effect, antagonist score)” value is 11 (compounds for which there was clear down regulation only at 50 μg/ml).
Under `Cc1c2ccncc2c(C)c2c1[nH]c1ccccc12` [compound 614, Ellipticine] stands 13 (compounds for which there was clear down regulation at 0.5 μg/ml, 5 μg/ml, and 50 μg/ml); under `COc1ccc2[nH]c3c(c2c1)CCN=C3C` [compound 621, Methoxy-6-harmalan], “— (compounds for which there was no clear down regulation even at 50 μg/ml)”.
